Measured values published in patent publication US9192672B2, “Zwitterion solution for low-volume therapeutic delivery” (Wayne State University Board of Governors, priority 2007, dated 2015).
In brackets after ≈: the same amount, converted by molar mass.

How the values were obtained:
physchem [1] = conditions: aqueous buffer, thermodynamic from solid
[2] = Solubility in artificial cerebrospinal fluid (aCSF); conditions: Table 2, artificial CSF
Solubility in saline = type: physicochemical; conditions: for solubility: saline, saline or isotonic
physchem [3] = conditions: saline or isotonic, thermodynamic from solid
[4] = cited from earlier work
[5] = artificial cerebrospinal fluid (aCSF)

| SMILES | solubility (physchem [1]) [µg/mL] | solubility (physchem [1]; MPI solution or aCSF) [µg/mL] | Solubility In Artificial CSF [2] [µg/mL] | solubility (Solubility in saline; Table 2, saline) [µg/mL] | further results |
| --- | --- | --- | --- | --- | --- |
| CC(Cc1ccc(OCC(=O)O)cc1)NCC(O)c1csc(C(F)(F)F)n1 (stereo not shown) [(4-{2-[2-hydroxy-2-(2-trifluoromethyl-thiazol-4-yl)-ethylamino]-propyl}-phenoxy)-acetic acid] | > 205 |  |  |  |  |
| CCOC(=O)C1=C(COCCNC(=O)/C=C\C(=O)O)NC(C)=C(C(=O)OC)C1c1ccccc1Cl (stereo not shown) [(Z)-4-[(2-{[4-(2-chlorophenyl)-3-(ethoxycarbonyl)-5-(methoxycarbonyl)-6-methyl-1,4-dihydro-2-pyridinyl]methoxy}ethyl)amino]-4-oxo-2-butenoic acid] |  | > 205 |  |  |  |
| NCC(CC(=O)O)c1ccc(Cl)cc1 (stereo not shown) [baclofen] |  |  |  |  | Concentration achieved in aCSF ([4]; differing forms of aCSF, earlier in vivo studies): less than 0.21 mg/ml; Solubility in aqueous saline solution ([4]; extreme heating at 100° Celsius, sonication, high speed stirring, US 2006/0009523): ≤ 12000 µg/mL; Concentration by back titration method ([4]; initial dissolution in acid pH below 3.87, then base, US 2006/0009523): ~10000 µg/mL |
| C=CC1=C(C(=O)O)N2C(=O)[C@@H](NC(=O)/C(=N\O)c3csc(N)n3)[C@H]2SC1 [cefdinir] | > 205 |  |  |  |  |
| CO/N=C(\C(=O)N[C@@H]1C(=O)N2C(C(=O)[O-])=C(C[N+]3(C)CCCC3)CS[C@H]12)c1csc(N)n1 [cefepime] | > 205 |  |  | 66 (≈ 137 µM) | solubility (physchem [3]): > 78 µg/mL |
| C=CC1=C(C(=O)O)N2C(=O)[C@@H](NC(=O)/C(=N\OCC(=O)O)c3csc(N)n3)[C@H]2SC1 [cefixime] |  | > 205 | >80 | 55 (≈ 121 µM) | Solubility In Saline (Solubility in saline; Table 2, saline): 68 µg/mL (≈ 150 µM); solubility (physchem [3]; [5]): > 72 µg/mL |
| COCC1=C(C(=O)O)N2C(=O)[C@@H](NC(=O)/C(=N\OC)c3csc(N)n3)[C@H]2SC1 [cefpodoxime] | > 205 |  |  |  |  |

More lines, main results first:

| solubility (physchem [1]) [µg/mL] | solubility (physchem [1]; MPI solution or aCSF) [µg/mL] | Solubility In Artificial CSF [2] [µg/mL] | solubility (Solubility in saline; Table 2, saline) [µg/mL] | SMILES | further results |
| --- | --- | --- | --- | --- | --- |
| > 205 |  |  |  | NC1C2CN(c3nc4c(cc3F)c(=O)c(C(=O)O)cn4-c3ccc(F)cc3F)CC12 (stereo not shown) [7-(6-amino-3-aza-bicyclo[3.1.0]hex-3-yl)-1-(2,4-difluoro-phenyl)-6-fluoro-4-oxo-1,4-dihydro-[1,8]naphthyridine-3-carboxylic acid] |  |
|  | > 205 | >250 | 205 (≈ 370 µM) | CO/N=C(\C(=O)N[C@@H]1C(=O)N2C(C(=O)O)=C(CSc3nc(=O)c(=O)[nH]n3C)CS[C@H]12)c1csc(N)n1 [Ceftriaxone, ceftriaxone] | solubility (physchem [1]; multivalent physiologic ion (MPI) solution): ≥ 700 µg/mL; solubility (Solubility in saline; Table 1, saline): 205 µg/mL (≈ 370 µM); solubility (Solubility in saline; text of Examples 8-14): 205 µg/mL (≈ 370 µM); solubility (physchem [3]; [5]): > 250 µg/mL |
|  |  | >1200 |  | CC(=O)OCC1=C(C(=O)O)N2C(=O)[C@@H](NC(=O)CSc3ccncc3)[C@H]2SC1 [cephaprine] | Solubility In Saline (Solubility in saline; Table 2, saline): 1000 µg/mL (≈ 2360 µM) |
